Results reported in patent US7771726B2, “Use of synthetic glycolipids as universal adjuvants for vaccines against cancer and infectious diseases” (New York University, priority 2003, dated 2010).

How the values were obtained:
[1] = system: human CD1d-restricted lymphocytes that express a semi-invariant TCR; details: Kawano et al., 1997; cited from earlier work
[2] = system: mouse CD1d-restricted lymphocytes that express a semi-invariant TCR; details: Kawano et al., 1997; cited from earlier work
murine NKT cells = assay: stimulation of murine NKT cells; format: cell-based
human NKT cells = assay: stimulation of human NKT cells; format: cell-based
[3] = system: Gag-specific CD8+ and CD4+ T cell response; assay: adjuvant activity with DNA vaccine encoding an HIV Gag sequence (FIGS. 3A and 3B); format: in vivo; details: for Gag-specific CD8+ T cell response: FIG. 3A
Description: FIGS. 3A and 3B depict the adjuvant activity of α-GalCer and CRONY 101, and the enhancement of a Gag-specific CD8+ T-cell response elicited by a DNA vaccine encoding an HIV-Gag sequence.
Further studies used a naked DNA plasmid encoding an HIV Gag sequence, as a vaccine.

[4] = system: HIV specific CD4+/CD8+ T-cell responses; assay: adjuvant effects on DNA vaccination in mice (FIG. 1); format: in vivo
Description: FIG. 1 depicts the adjuvant effects of α-GalCer on DNA vaccination in mice, and the enhancement of HIV-specific CD4+/CD8+ T-Cell responses;
FIG. 1 depicts the adjuvant effects of the α-GalCer on DNA vaccination in mice.

malaria = malaria disease model in mice, activity compared to α-GalCer; format: in vivo; details: disease model requiring Th1-type responses; relative to α-GalCer
Description: (§1) As reported in copending U.S. patent application Ser. No. 10/206,155, α-Galactosylceramide (α-GalCer) is a glycolipid ligand for natural killer T (NKT) cells, which respond to the glycolipid and produce both interferon (IFN)-γ and interleukin (IL)-4. […] It has now been discovered that synthetic C-glycoside analogs of α-GalCer of general formula (I) act as an NKT cell ligand and display 100-1000 fold higher activity against tumor and malaria, by preferentially inducing the production of Th1-type cytokines, IFN-γ and IL-12, in vivo.

melanoma metastases = melanoma metastases disease model, activity compared to α-GalCer; format: in vivo, mice; details: disease model requiring Th1-type responses; relative to α-GalCer
Description: as §1

[5] = system: Th1-type cytokines, IFN-γ and IL-12; Th2 cytokine, IL-4; assay: cytokine production in vivo after administration to mice; details: as compared to α-GalCer
Description: as §1

[6] = system: malaria antigen-specific CD8+ T-cell responses; assay: adjuvant activity with suboptimal dose of recombinant adenovirus expressing a malarial antigen (FIG. 2); format: in vivo, mice
Description: FIG. 2 depicts the adjuvant activity of CRONY 101, and the enhancement of a malaria-specific CD8+ T-cell response elicited by a recombinant adenovirus expressing a malaria antigen; and
In FIG. 2, the number of IFN secreting CD8+ T cells per million splenocytes is greater for CRONY 101 than for α-GalCer.
Thus, co-administration of α-C-GalCer to mice immunized with a suboptimal dose of a recombinant adenovirus expressing a malarial antigen enhanced protective antimalaria immunity and the level of malaria antigen-specific CD8^+ T-cell responses. Coadministration of 1 ng of CRONY 101 was compared to administration of 1 μg of α-GalCer.

[7] = DNA vaccine encoding an HIV Gag sequence
[8] = co-administration, mice immunized with suboptimal dose of recombinant adenovirus

SMILES | concentrations at which recognized [1] | concentrations at which recognized [2] | stimulation of murine NKT cells (murine NKT cells) | stimulation of human NKT cells (human NKT cells) | Gag-specific CD8+ T cell response [3, 7] | HIV specific CD4+/CD8+ T-cell responses [4] | more potent activity than α-GalCer, malaria (malaria) | more potent activity than α-GalCer, melanoma metastases (melanoma metastases) | population of the Th2 cytokine, IL-4 [5] | production of the Th1-type cytokines [5] | increased number of malaria specific CD8+ cells ([6]; 1 ng of CRONY 101 as compared to 1 μg of α-GalCer) | number of IFN secreting CD8+ T cells per million splenocytes ([6]; FIG. 2, compared with α-GalCer) | adjuvant activity compared with α-GalCer ([6]; FIG. 2, recombinant adenovirus expressing a malaria antigen) | level of malaria antigen-specific CD8+ T-cell responses [6, 8] | protective antimalaria immunity [6, 8] | Gag-specific CD4+ T cell response ([3]; FIG. 3B, DNA vaccine encoding a HIV-Gag sequence) | adjuvant activity compared with α-GalCer ([3]; FIGS. 3A and 3B, DNA vaccine encoding an HIV Gag sequence)
CCCCCCCCCCCCCCCCCCCCCCCCCC(=O)N[C@@H](CO[C@H]1O[C@H](CO)[C@H](O)[C@H](O)[C@H]1O)[C@H](O)[C@H](O)CCCCCCCCCCCCCC [α-GalCer, α-galactosyl-ceramide, reference compound] | picomolar | picomolar | stimulate | stimulate | enhancement | enhancement | – | – | – | – | – | – | – | – | – | – | –
CCCCCCCCCCCCCCCCCCCCCCCCCC(=O)N[C@@H](CCC1OC(CO)[C@H](O)C(O)[C@@H]1O)[C@H](O)[C@H](O)CCCCCCCCCCCCCC (stereo partly drawn) [CRONY 101, 3′S,4′S,5′R-3′-N-hexacosanoyl-4′,5′-dihydroxynonadecyl-α-C-D-galactopyranoside] | – | – | stimulate | stimulate | enhances | – | 1000 fold | 100 fold | decreased | prolonged production | ⅚ | greater | more potent | enhanced | enhanced | enhancing | more potent
